Assay results reported in ChEMBL document CHEMBL1201862, “PubChem BioAssay data set” (2004).
Active and inactive are the calls of the source.

Key:
HEK293 [1] = experiment: cells; assay type: functional, cell-based; conditions: Homo sapiens
[2] = target: T1, Nuclear receptor subfamily 0 group B member 1 (Homo sapiens, UniProt P51843); experiment: Luminescence-based cell-based high throughput dose response assay for inhibitors of the orphan nuclear receptor subfamily 0, group B, member 1 (DAX1; NR0B1). [Related pubchem assays (depositor defined):AID504766, AID504790]; assay type: functional
T1 sequence (P51843 whole entry): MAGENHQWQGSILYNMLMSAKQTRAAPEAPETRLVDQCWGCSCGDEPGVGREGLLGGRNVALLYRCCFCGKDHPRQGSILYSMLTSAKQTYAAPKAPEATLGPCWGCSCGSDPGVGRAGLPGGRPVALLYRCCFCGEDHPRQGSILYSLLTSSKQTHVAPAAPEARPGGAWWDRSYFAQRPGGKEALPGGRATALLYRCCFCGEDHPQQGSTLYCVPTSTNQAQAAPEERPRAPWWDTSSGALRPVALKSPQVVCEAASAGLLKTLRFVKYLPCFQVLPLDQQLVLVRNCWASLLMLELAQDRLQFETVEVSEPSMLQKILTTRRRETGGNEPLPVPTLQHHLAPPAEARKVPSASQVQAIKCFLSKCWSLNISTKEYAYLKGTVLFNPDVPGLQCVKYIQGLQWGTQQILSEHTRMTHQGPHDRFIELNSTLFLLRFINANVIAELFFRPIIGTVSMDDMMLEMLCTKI

[3] = test system: Streptococcus sp. 'group A'; experiment: Streptococcus pyogenes SK(-)GAS viability under kanamycin – luminescence, BacTiterGlo, confirmation, counter-screen for streptokinase expression inhibitor project, dose response (AID 1900); assay type: functional, organism-based
Vero = experiment: mammalian cell viability reduction – secondary assay, cytotoxicity control for West Nile virus antiviral project, dose response (AID 1650); assay type: functional; conditions: Chlorocebus sabaeus
Streptokinase A = target: T2, Streptokinase A (Streptococcus pyogenes serotype M1, UniProt P10520); experiment: viability-normalized secreted streptokinase activity reduction – plasminogen activation absorbance, OD405, dose response (AID 1914); assay type: functional, Streptococcus pyogenes M1 GAS;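 note: secreted streptokinase activity via plasminogen activation per viability signal from cell pellet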
T2 sequence (P10520 whole entry): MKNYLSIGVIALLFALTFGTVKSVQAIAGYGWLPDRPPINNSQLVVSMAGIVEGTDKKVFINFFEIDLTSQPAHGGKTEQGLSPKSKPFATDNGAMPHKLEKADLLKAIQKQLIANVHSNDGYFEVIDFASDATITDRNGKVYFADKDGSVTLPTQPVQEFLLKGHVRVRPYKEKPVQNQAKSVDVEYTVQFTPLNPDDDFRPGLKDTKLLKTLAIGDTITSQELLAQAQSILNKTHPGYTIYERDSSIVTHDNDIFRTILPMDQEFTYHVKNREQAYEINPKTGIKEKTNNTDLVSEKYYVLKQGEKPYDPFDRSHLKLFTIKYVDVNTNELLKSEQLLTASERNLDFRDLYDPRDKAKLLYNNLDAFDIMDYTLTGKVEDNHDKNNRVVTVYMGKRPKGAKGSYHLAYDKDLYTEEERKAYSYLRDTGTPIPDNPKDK

Streptococcus = experiment: GAS UMAA2166 growth inhibition – luminescence, BacTiterGlo, counter-screen for streptokinase expression inhibitor project, dose response (AID 1915); assay type: functional, organism-based;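 note: potency for reduction of bacterial viability or growth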
[4] = target: T3, ATP-dependent translocase ABCB1 (Homo sapiens, UniProt P08183); experiment: inhibition of BCRP-mediated JC-1 efflux – Ig-MXP3 cells, flow cytometry, set 2, dose response (AID 504566); assay type: functional; conditions: read-out: EC50_MICROM_;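 note: flow cytometry median green fluorescence of retained JC-1 dye; potency of efflux pump inhibition measured as rising substrate retention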
[5] = target: T3, ATP-dependent translocase ABCB1; experiment: P-gp JC-1 efflux blockade concentration-response – Jurkat-DNR cells, flow cytometry, set 2, dose response (AID 504569); assay type: functional; conditions: read-out: EC50_MICROM_;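 note: potency of pump inhibitors that raise cellular JC-1 green fluorescence up to the nicardipine level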
HEK293 [6] = experiment: inhibition of NOD1-driven NF-kB reporter – cell-based, luminescence, uHTS, primary screen (AID 1578); assay type: functional; conditions: Homo sapiens
HEK293 [7] = experiment: cells; assay type: functional, cell-based; conditions: Homo sapiens; remark: listed apart in the source
HEK293 [8] = experiment: cells; assay type: functional, cell-based; conditions: Homo sapiens; remark: listed apart in the source
HEK293 [9] = experiment: NOD2 signaling inhibitors in MDP-stimulated cells, cell-based, uHTS, luminescence (AID 2001); assay type: functional; conditions: Homo sapiens
[10] = microbe, parasite or virus in culture; assay type: functional; conditions: Mycobacterium tuberculosis
[11] = THP-1 cell cytotoxicity, dose response, cytotoxicity control for non-replicating M. tuberculosis project (AID 489025); assay type: functional
[12] = target: T4, Microphthalmia-associated transcription factor (Homo sapiens, UniProt O75030); experiment: reducers of TRPM1 reporter luminescence, concentration series – cell-based, SK-MEL-5, cherry-picked, set 3, MITF inhibitor project, dose response (AID 493073); assay type: functional;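 note: SK-MEL-5 melanoma cells with luciferase driven by the MITF target TRPM1 promoter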
T4 sequence (O75030 whole entry): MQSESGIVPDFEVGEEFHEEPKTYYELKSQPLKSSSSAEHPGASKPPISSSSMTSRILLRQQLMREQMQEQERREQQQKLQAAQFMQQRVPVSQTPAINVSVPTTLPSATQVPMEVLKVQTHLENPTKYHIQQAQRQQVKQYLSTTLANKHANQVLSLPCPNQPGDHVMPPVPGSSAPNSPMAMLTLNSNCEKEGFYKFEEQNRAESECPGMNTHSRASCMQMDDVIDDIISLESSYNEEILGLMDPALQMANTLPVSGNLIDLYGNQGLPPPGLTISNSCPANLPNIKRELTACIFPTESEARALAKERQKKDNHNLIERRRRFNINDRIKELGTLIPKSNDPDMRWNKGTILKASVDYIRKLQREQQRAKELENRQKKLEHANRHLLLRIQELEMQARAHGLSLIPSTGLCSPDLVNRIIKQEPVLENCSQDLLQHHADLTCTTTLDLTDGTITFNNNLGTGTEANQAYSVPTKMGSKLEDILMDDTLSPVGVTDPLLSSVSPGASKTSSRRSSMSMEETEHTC

cells = assay type: functional
[13] = target: T5, Replicative DNA helicase DnaB (Mycobacterium tuberculosis, UniProt P9WMR3); experiment: DnaB intein splicing inhibitors, dose response, biochemical, cell-free fluorescence (AID 449749); assay type: functional
T5 sequence (P9WMR3 whole entry): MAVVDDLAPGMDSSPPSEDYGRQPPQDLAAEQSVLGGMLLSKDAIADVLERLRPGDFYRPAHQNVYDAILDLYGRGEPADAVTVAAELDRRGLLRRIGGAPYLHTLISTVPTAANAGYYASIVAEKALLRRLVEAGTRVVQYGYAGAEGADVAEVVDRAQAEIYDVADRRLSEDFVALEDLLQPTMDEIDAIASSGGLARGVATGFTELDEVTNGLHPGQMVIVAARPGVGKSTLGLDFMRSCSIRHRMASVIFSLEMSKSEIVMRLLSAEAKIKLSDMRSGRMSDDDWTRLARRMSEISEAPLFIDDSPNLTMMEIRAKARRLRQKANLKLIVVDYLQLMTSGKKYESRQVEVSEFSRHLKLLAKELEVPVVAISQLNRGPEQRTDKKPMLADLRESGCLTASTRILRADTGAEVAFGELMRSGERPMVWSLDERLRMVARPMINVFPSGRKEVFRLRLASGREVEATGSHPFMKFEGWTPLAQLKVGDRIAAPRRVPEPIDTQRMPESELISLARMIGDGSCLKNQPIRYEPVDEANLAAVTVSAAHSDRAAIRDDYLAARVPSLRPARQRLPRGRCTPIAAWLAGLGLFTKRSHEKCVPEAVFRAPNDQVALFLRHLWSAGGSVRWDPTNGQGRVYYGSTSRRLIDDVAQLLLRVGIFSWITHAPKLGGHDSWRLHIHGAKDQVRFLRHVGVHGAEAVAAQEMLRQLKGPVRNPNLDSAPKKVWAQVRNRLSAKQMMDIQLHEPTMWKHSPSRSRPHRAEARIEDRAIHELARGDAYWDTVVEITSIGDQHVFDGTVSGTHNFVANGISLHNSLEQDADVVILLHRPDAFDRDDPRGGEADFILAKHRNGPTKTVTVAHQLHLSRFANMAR

Protein RecA = target: T6, Protein RecA (Mycobacterium tuberculosis, UniProt P9WHJ3); experiment: Fluorescence Cell-Free Homogeneous Dose Retest to Identify Inhibitors of RecA-Intein Splicing Activity. [Related pubchem assays (depositor defined):AID2097, AID2223, AID489010, AID492950]; assay type: functional
T6 sequence (P9WHJ3 whole entry): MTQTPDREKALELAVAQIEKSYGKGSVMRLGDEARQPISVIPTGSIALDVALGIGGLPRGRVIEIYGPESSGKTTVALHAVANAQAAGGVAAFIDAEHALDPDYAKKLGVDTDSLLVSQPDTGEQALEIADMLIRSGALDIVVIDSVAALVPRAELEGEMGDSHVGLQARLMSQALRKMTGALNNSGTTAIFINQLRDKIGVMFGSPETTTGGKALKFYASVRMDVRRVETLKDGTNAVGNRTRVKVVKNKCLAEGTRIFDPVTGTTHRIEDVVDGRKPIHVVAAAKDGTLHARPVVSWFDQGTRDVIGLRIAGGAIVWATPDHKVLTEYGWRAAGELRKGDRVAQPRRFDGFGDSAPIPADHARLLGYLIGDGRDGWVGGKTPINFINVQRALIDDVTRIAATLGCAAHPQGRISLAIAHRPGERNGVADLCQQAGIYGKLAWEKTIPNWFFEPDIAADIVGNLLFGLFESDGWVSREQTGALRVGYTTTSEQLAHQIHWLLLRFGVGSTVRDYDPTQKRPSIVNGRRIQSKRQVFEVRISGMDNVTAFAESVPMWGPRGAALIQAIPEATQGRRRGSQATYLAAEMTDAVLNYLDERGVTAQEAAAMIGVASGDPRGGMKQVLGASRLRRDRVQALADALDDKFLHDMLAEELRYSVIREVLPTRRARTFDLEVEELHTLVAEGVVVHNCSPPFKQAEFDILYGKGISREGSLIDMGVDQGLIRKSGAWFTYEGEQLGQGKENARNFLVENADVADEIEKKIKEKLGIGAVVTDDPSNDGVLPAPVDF

[14] = A549 cell cytotoxicity, dose response, cytotoxicity control, plate reader, cherry-pick, antagonist series (AID 743412); assay type: functional, cell-based
[15] = toxicity toward HepG2 liver cells – cell-based, plate reader, cherry-pick, antagonist series, cytotoxicity control, dose response (AID 743416); assay type: functional
[16] = blockers of bursicon-stimulated LGR2 cAMP reporter – cell-based, HEK293, CRE-luciferase reporter, cherry pick, set 2, dose response (AID 743343); assay type: functional;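 note: transfected cells were stimulated with diluted bursicon conditioned medium after compound addition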
[17] = blockade of melanocortin 4 receptor signaling – cell-based, plate reader, cherry pick, counter-screen for LGR2 antagonist project, dose response (AID 743444); assay type: functional;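 note: transfected HEK 293 cells stimulated with alpha-MSH peptide; potency of inhibitors of the alpha-MSH evoked signal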
[18] = viability loss in HEK293 cells – cell-based, plate reader, cherry-picked samples, cytotoxicity control, dose response (AID 743446); assay type: functional
[19] = target: T7, Low molecular weight phosphotyrosine protein phosphatase (Homo sapiens, UniProt P24666); assay type: functional; conditions: read-out: IC50_Mean
T7 sequence (P24666 whole entry): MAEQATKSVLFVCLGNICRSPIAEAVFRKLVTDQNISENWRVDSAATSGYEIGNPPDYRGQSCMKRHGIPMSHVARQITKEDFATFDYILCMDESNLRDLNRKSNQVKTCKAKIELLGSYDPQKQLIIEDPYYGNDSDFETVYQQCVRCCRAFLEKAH

[20] = target: T7, Low molecular weight phosphotyrosine protein phosphatase; assay type: functional; conditions: read-out: IC50_Mean; remark: listed apart in the source

T3 sequence (P08183 whole entry): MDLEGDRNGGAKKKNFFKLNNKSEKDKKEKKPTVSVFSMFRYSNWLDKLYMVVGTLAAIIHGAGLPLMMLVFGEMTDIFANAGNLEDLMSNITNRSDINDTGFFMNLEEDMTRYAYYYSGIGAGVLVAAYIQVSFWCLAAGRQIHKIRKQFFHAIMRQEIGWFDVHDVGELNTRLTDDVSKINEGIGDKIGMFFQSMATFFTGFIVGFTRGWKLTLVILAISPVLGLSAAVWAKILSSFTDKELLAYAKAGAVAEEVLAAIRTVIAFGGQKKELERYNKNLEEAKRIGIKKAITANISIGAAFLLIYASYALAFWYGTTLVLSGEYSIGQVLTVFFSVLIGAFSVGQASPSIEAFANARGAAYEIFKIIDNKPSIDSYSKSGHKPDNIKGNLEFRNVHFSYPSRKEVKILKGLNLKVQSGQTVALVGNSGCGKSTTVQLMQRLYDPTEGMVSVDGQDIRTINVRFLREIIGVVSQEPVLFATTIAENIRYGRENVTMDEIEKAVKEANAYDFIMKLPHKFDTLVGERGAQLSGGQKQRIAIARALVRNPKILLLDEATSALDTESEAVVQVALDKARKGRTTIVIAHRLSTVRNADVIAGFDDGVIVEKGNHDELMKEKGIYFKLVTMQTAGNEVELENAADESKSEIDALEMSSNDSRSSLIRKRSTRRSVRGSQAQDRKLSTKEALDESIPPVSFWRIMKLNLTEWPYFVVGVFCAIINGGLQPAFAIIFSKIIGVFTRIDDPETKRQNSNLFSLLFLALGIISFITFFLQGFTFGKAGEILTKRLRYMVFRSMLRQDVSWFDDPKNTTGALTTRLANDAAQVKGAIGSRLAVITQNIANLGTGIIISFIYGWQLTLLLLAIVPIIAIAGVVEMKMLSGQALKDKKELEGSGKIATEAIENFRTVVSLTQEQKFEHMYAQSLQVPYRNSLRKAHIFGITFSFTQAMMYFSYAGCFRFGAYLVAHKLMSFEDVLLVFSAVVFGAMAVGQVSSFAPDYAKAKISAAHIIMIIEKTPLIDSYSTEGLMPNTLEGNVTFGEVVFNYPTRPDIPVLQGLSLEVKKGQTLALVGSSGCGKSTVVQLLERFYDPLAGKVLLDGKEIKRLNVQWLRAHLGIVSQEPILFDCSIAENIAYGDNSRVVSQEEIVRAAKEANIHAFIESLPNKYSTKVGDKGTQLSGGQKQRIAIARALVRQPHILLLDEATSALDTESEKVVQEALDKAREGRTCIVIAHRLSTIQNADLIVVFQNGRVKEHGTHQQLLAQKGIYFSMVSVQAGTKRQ

## Cc1cccnc1NC(=O)C(C)N1C(=O)c2ccccc2C1=O (stereo not drawn)
HEK293 [1]
  IC50: > 67.5 µM (inactive)
[2]
  IC50: > 67.5 µM (inactive)

## Cc1nn2c(N3CCN(C(=O)c4ccco4)CC3)cc(C(C)(C)C)nc2c1-c1ccccc1
[3]
  EC50: 3.59 µM (active)
Vero
  CC50: 42.1 µM (active)
Streptokinase A
  EC50: 8.62 µM (active)
Streptococcus
  EC50: 22.1 µM (active)
[4]
  EC50: 6.22 µM (active)
[5]
  EC50: 11.1 µM (active)

## CC(=O)c1ccc(Sc2nnnn2-c2ccccc2)c([N+](=O)[O-])c1
HEK293 [6]
  EC50: 14.3 µM (active)
HEK293 [7]
  IC50: 2.12 µM (active)
HEK293 [8]
  IC50: > 20 µM (inactive)
HEK293 [9]
  IC50: 3.13 µM (active)
[10]
  CC50: > 40 µM (active)
[11]
  CC50: 14.9 µM (active)
[12]
  AC50: 7.82 µM (active)
cells
  IC50: 26.2 µM (active)
[13]
  AC50: 5.34 µM (active)
Protein RecA
  EC50: 14.5 µM (active)
[14]
  AC50: 49.7 µM (active)
[15]
  AC50: > 52 µM (inactive)
[16]
  AC50: 10.8 µM (active)
[17]
  AC50: 9.52 µM (active)
[18]
  AC50: 33.2 µM (active)

## COc1cccc(C(=O)NC(=O)Nc2cc(C)[nH]n2)c1
HEK293 [1]
  IC50: > 67.5 µM (inactive)
[2]
  IC50: > 67.5 µM (inactive)

## COc1ccc(-c2cc(=O)c3ccccc3o2)cc1 [4'-METHOXYFLAVONE]
HEK293 [1]
  IC50: > 67.5 µM (inactive)
[2]
  IC50: > 67.5 µM (inactive)

## CN(Cc1ccc(C(C)(C)C)cc1)C(=O)C1CCN(C(=O)Nc2ccccc2)CC1
HEK293 [1]
  IC50: > 67.5 µM (inactive)
[2]
  IC50: > 67.5 µM (inactive)

## CNc1nc2c(-c3ccc(Cl)cc3)nnn2c2ccccc12
[19]
  IC50: 11.1 µM (active)
[20]
  IC50: 3.14 µM (active)

## Cc1cc(N2CCN(C(=O)c3ccco3)CC2)n2nc(-c3ccc(F)cc3)cc2n1
[4]
  EC50: 2.87 µM (active)
[5]
  EC50: 10.8 µM (active)
